PubChem BioAssay (NCI)
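48-hour exposure; five concentrations; linearly interpolated endpoints. TGI denotes the concentration required for complete inhibition of growth.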

What was measured:
Experiment in all cases: inhibition of tumour cell growth, NCI panel, 48 h
786-0 renal = system: 786-0 renal
NCI-H23 lung = system: NCI-H23 lung
CCRF-CEM leukemia = system: CCRF-CEM leukemia
A498 renal = system: A498 renal
M14 melanoma = system: M14 melanoma
OVCAR-4 ovarian = system: OVCAR-4 ovarian
SK-MEL-2 melanoma = system: SK-MEL-2 melanoma
UO-31 renal = system: UO-31 renal
DLD-1 colon = system: DLD-1 colon
SK-MEL-28 melanoma = system: SK-MEL-28 melanoma
HOP-62 NSCLC = system: HOP-62 NSCLC
RXF 393 renal = system: RXF 393 renal
OVCAR-8 ovarian = system: OVCAR-8 ovarian
UACC-257 melanoma = system: UACC-257 melanoma
NCI-H226 lung = system: NCI-H226 lung
SK-MEL-5 melanoma = system: SK-MEL-5 melanoma
HOP-92 NSCLC = system: HOP-92 NSCLC
HOP-18 NSCLC = system: HOP-18 NSCLC
NCI-H460 lung = system: NCI-H460 lung
SNB-78 CNS = system: SNB-78 CNS
CAKI-1 renal = system: CAKI-1 renal
OVCAR-3 ovarian = system: OVCAR-3 ovarian
HCT-116 colon = system: HCT-116 colon
SW-620 colon = system: SW-620 colon
MOLT-4 leukemia = system: MOLT-4 leukemia
LOX IMVI melanoma = system: LOX IMVI melanoma
SNB-19 CNS = system: SNB-19 CNS
HCT-15 colon = system: HCT-15 colon
HCC-2998 colon = system: HCC-2998 colon
TK-10 renal = system: TK-10 renal
SN12C renal = system: SN12C renal
M19-MEL melanoma = system: M19-MEL melanoma
SF-268 CNS = system: SF-268 CNS
ACHN renal = system: ACHN renal
SF-539 CNS = system: SF-539 CNS
UACC-62 melanoma = system: UACC-62 melanoma
EKVX NSCLC = system: EKVX NSCLC
DMS 114 small cell lung = system: DMS 114 small cell lung
SNB-75 CNS = system: SNB-75 CNS
SK-OV-3 ovarian = system: SK-OV-3 ovarian
OVCAR-5 ovarian = system: OVCAR-5 ovarian
IGROV1 ovarian = system: IGROV1 ovarian
COLO 205 colon = system: COLO 205 colon
A549 NSCLC = system: A549 NSCLC
K-562 leukemia = system: K-562 leukemia
MALME-3M melanoma = system: MALME-3M melanoma
SF-295 CNS = system: SF-295 CNS
KM12 colon = system: KM12 colon
U251 CNS = system: U251 CNS
HL-60(TB) leukemia = system: HL-60(TB) leukemia
HT29 colon = system: HT29 colon
DMS 273 small cell lung = system: DMS 273 small cell lung
SR leukemia = system: SR leukemia
XF 498 CNS = system: XF 498 CNS
LXFL 529 NSCLC = system: LXFL 529 NSCLC
RPMI-8226 leukemia = system: RPMI-8226 leukemia
NCI-H522 lung = system: NCI-H522 lung
KM20L2 colon = system: KM20L2 colon

COc1cccc(C2SCc3nc4ccccc4n32)c1 (stereo not given)
TGI (786-0 renal): > 100 µM | TGI (NCI-H23 lung): > 100 µM | TGI (CCRF-CEM leukemia): > 100 µM | TGI (A498 renal): > 100 µM | TGI (M14 melanoma): > 100 µM | TGI (OVCAR-4 ovarian): > 100 µM | TGI (SK-MEL-2 melanoma): > 100 µM | TGI (UO-31 renal): 95.7 µM | TGI (DLD-1 colon): > 100 µM | TGI (SK-MEL-28 melanoma): > 100 µM | TGI (HOP-62 NSCLC): > 100 µM | TGI (RXF 393 renal): > 100 µM | TGI (OVCAR-8 ovarian): > 100 µM | TGI (UACC-257 melanoma): > 100 µM | TGI (NCI-H226 lung): > 100 µM | TGI (SK-MEL-5 melanoma): 65.7 µM | TGI (HOP-92 NSCLC): 69.8 µM | TGI (HOP-18 NSCLC): > 100 µM | TGI (NCI-H460 lung): > 100 µM | TGI (SNB-78 CNS): > 100 µM | TGI (CAKI-1 renal): > 100 µM | TGI (OVCAR-3 ovarian): > 100 µM | TGI (HCT-116 colon): > 100 µM | TGI (SW-620 colon): > 100 µM | TGI (MOLT-4 leukemia): > 100 µM | TGI (LOX IMVI melanoma): > 100 µM | TGI (SNB-19 CNS): > 100 µM | TGI (HCT-15 colon): > 100 µM | TGI (HCC-2998 colon): > 100 µM | TGI (TK-10 renal): 55.1 µM | TGI (SN12C renal): > 100 µM | TGI (M19-MEL melanoma): > 100 µM | TGI (SF-268 CNS): > 100 µM | TGI (ACHN renal): > 100 µM | TGI (SF-539 CNS): > 100 µM | TGI (UACC-62 melanoma): > 100 µM | TGI (EKVX NSCLC): > 100 µM | TGI (DMS 114 small cell lung): > 100 µM | TGI (SNB-75 CNS): > 100 µM | TGI (SK-OV-3 ovarian): > 100 µM | TGI (OVCAR-5 ovarian): > 100 µM | TGI (IGROV1 ovarian): > 100 µM | TGI (COLO 205 colon): > 100 µM | TGI (A549 NSCLC): > 100 µM | TGI (K-562 leukemia): > 100 µM | TGI (MALME-3M melanoma): > 100 µM | TGI (SF-295 CNS): > 100 µM | TGI (KM12 colon): > 100 µM | TGI (U251 CNS): > 100 µM | TGI (HL-60(TB) leukemia): > 100 µM | TGI (HT29 colon): > 100 µM | TGI (DMS 273 small cell lung): > 100 µM

CC(C)C(Sc1nc(-c2ccccc2)c(-c2ccccc2)[nH]1)c1n[nH]c(=S)n1-c1ccccc1 (stereo not given)
TGI (786-0 renal): > 100 µM | TGI (NCI-H23 lung): 77.9 µM | TGI (CCRF-CEM leukemia): 64.5 µM | TGI (A498 renal): > 100 µM | TGI (M14 melanoma): 38.2 µM | TGI (OVCAR-4 ovarian): > 100 µM | TGI (SK-MEL-2 melanoma): 43 µM | TGI (UO-31 renal): 57.2 µM | TGI (DLD-1 colon): > 100 µM | TGI (SK-MEL-28 melanoma): 70.2 µM | TGI (HOP-62 NSCLC): > 100 µM | TGI (OVCAR-8 ovarian): > 100 µM | TGI (UACC-257 melanoma): 74.9 µM | TGI (SR leukemia): 92.3 µM | TGI (NCI-H226 lung): > 100 µM | TGI (SK-MEL-5 melanoma): 31.5 µM | TGI (HOP-92 NSCLC): 72 µM | TGI (NCI-H460 lung): > 100 µM | TGI (SNB-78 CNS): > 100 µM | TGI (OVCAR-3 ovarian): 45.9 µM | TGI (HCT-116 colon): > 100 µM | TGI (SW-620 colon): > 100 µM | TGI (MOLT-4 leukemia): 47.5 µM | TGI (LOX IMVI melanoma): 35.4 µM | TGI (SNB-19 CNS): 56.8 µM | TGI (HCT-15 colon): > 100 µM | TGI (HCC-2998 colon): 46 µM | TGI (TK-10 renal): > 100 µM | TGI (SN12C renal): > 100 µM | TGI (M19-MEL melanoma): 35.5 µM | TGI (SF-268 CNS): > 100 µM | TGI (ACHN renal): 79.5 µM | TGI (SF-539 CNS): 40.4 µM | TGI (UACC-62 melanoma): 25.3 µM | TGI (EKVX NSCLC): 65.4 µM | TGI (SNB-75 CNS): > 100 µM | TGI (SK-OV-3 ovarian): > 100 µM | TGI (XF 498 CNS): 80.3 µM | TGI (OVCAR-5 ovarian): 95 µM | TGI (IGROV1 ovarian): 69.2 µM | TGI (LXFL 529 NSCLC): 54.4 µM | TGI (COLO 205 colon): 62.1 µM | TGI (A549 NSCLC): > 100 µM | TGI (RPMI-8226 leukemia): 76 µM | TGI (NCI-H522 lung): 43.6 µM | TGI (MALME-3M melanoma): 50.9 µM | TGI (SF-295 CNS): 57.3 µM | TGI (KM12 colon): 30.5 µM | TGI (U251 CNS): 61.3 µM | TGI (HL-60(TB) leukemia): 47.1 µM | TGI (HT29 colon): 70.3 µM | TGI (KM20L2 colon): 62.8 µM | TGI (DMS 273 small cell lung): > 100 µM
